This is an account of results in US20240342204A1, “METHOD OF TREATING VETERINARY VIRAL DISEASES” (Intervet Inc., priority 2021, published 2024).

For test [1], the system named is Feline Infectious Peritonitis Virus (FIPV) strain 79-1146. The test can be described thus: CPE antiviral assay for FIPV in Crandell-Rees Feline Kidney (CrFK) cells. The format is cell-based.
Test [2] has as its system feline infectious peritonitis (FIP) virus. Particulars: tissue culture and experimental cat infection studies; cited from earlier work.
Test [3] has as its system swine influenza virus strain A/swine/MN/A01483170/2014 (H1N1 pdm). Nature of the test: microbe, parasite or virus in culture. Particulars: H1N1, MDCK, in Sus scrofa, 24 h, read-out: EC50, replication of swine influenza virus reduced by half, H1N1pdm strain. The format is cell-based.
Test [4] relates to Porcine rotavirus A strain of serotype G5P7. Nature of the test: Anti-porcine rotavirus immunofluorescent assay in MA-104 cells, strain G5P7. Particulars: MA104, 72 h, read-out: EC50, replication of porcine rotavirus reduced by half, G5P7 strain. The format is cell-based. How it is done: (§1) Example 3 Anti-Porcine Rotavirus Activity of β-D-N(4)-Hydroxycytidine (NHC)
(§2) The anti-rotaviral activity of NHC against swine rotaviruses was tested in a cell culture-based assay. MA-104 (Rhesus monkey kidney tissue) cells were cultured and harvested according to standard procedures. The harvested MA-104 cell suspension was seeded onto 96-well plates (Greiner CELLSTAR® black, Sigma-Aldrich® M0562) in 200 μl/well M6B8 medium with 5% FBS at a density of 3×10^4 cells/mL. After 4 days of culturing, the monolayers were washed and the cells were infected with rotavirus A by adding 100 μl/well of 3630 TCID50/mL Porcine rotavirus A strain of serotype G5P7 (ATCC, VR-892) or strain G9P7 (MAH Worthington, USA). […] Replication inhibition of the Rotavirus A strains by NHC was quantified using a mouse-anti-Rotavirus A strain-specific monoclonal antibody (Ingenasa, #1JF10) followed by FITC-fluorochrome conjugated goat-anti-mouse antibody (Nordic) and DAPI (Sigma Aldrich) nuclear staining in an immunofluorescent assay. The extent of immunofluorescence was quantified as relative fluorescence units (RFU) at 485 nm excitation and 528 nm emission using a Cytation 5 cell imaging multimode reader and Gen5 software version 3.10 (Agilent BioTek). […]

Test [5] relates to Porcine rotavirus A strain G9P7. Nature of the test: Anti-porcine rotavirus immunofluorescent assay in MA-104 cells, strain G9P7. The settings on record: MA104, 72 h, 3 days, immunofluorescence (FIG. 3b), read-out: EC50, replication of porcine rotavirus reduced by half, G9P7 strain. The format is cell-based. How it is done: as §1, §2
Test [6] has as its system bovine viral diarrhea virus (BVDV). Particulars: BVDV virus yield; read-out: EC90, virus yield assays; cited from earlier work.
Test [7] concerns cytopathic bovine viral diarrhea virus (BVDV) RNA. Particulars: dose-dependent inhibition of BVDV RNA production; read-out: 90% effective concentration (EC90), production of cytopathic BVDV RNA; cited from earlier work.
The test system of test [8] is swine influenza virus strain A/swine/Belgium/113/2013 (H3N2). Nature of the test: organism not typed. Particulars: MDCK, 24 h, read-out: EC50, replication of swine influenza virus reduced by half, H3N2 strain. The format is cell-based.
Test [9] has as its system feline calicivirus (FCV) field strain 255. Nature of the test: CrFK cell based antiviral activity against Feline Calicivirus (CPE, CellTiterGlo). Particulars: 48 h, read-out: ED50 of NHC against Feline calicivirus. The procedure: Example 2 CrFK Cell Based Antiviral Activity of NHC Against Feline Calicivirus (FCV)
Monolayers of Crandell-Rees Feline Kidney (CrFK) cells grown in 96-well plates (Greiner Cat #655090) in 100 μl/well M6B8 medium supplemented with 5% FCS and 0.15% NaHCO3 at a density of 2×10^5 cells/ml were infected with feline calicivirus (FCV) field strain 255 at multiplicities of infection of 0.01 and 0.001. NHC was added in ⅓ serial dilutions to the infected cells to yield a test concentration range of from 10 μM to 0.000508 μM and cultures were incubated for up to 48 hours at 37° C. and 5% C02. The extent of viral replication was assessed by determining the degree of FCV-induced cytopathic effect (CPE) using the CellTiterGlo® Luminescent Cell Viability Assay (Promega Cat #G7571) by adding the reagent 1:1 (v/v) to the culture plates that have been equilibrated to room temperature for 30 minutes. Plates were incubated for 10 minutes at room temperature and subsequently read for luminescence in a Biotek Cytation5. The effective concentration of NHC that reduced FCV replication by 50% (EC50) was calculated in a 4-parameter nonlinear regression model using GraphPad Prism 8.
Background: ATP-based viability assays read luminescence as a measure of living cells.

Setting [10] is: FIPV strain 79-1146 infected CRFK cells, 96 hrs, CPE by CellTiterGlo, read-out: EC 50.

SMILES strings stand for the structures. Read-outs that look alike come from different tables or passages of the source.

As for `CC(C)C[C@H](NC(=O)OCc1ccccc1)C(=O)N[C@@H](CC1CCNC1=O)C(O)S(=O)(=O)O` (stereo partly shown) [GC-376], in [1] (setting [10]), the EC50 was in the range of 1820 to 3000 nM.
In the case of `N#C[C@@]1(c2ccc3c(N)ncnn23)O[C@H](CO)[C@@H](O)[C@H]1O` [GS-441524], in test [2], the “Inhibition of FIP virus (in words)” value is “strongly inhibit”.
For the compound `C[C@@]1(O)[C@H](O)[C@@H](CO)O[C@H]1n1ccc2c(N)ncnc21` [MK-0608], the EC50 in [1] (setting [10]) is greater than 30000 nM.
With `O=c1nc(NO)ccn1[C@@H]1O[C@H](CO)[C@@H](O)[C@H]1O` [NHC, 1-((2R,3R,4S,5R)-3,4-dihydroxy-5-(hydroxymethyl)tetrahydrofuran-2-yl)-4-(hydroxyamino)pyrimidin-2(1H)-one], the EC50 is 5200 nM in test [3]; 2600 nM in test [4]; 1900 nM in test [5]; 334 to 370 nM in test [1] (Alphacoronavirus 1, FIPV strain 79-1146 infected CRFK cells, 96 hrs, CPE by CellTiterGlo, read-out: EC 50); 1300 nM in [8]; 3800 nM in [9]. For the same compound, the “Antiviral dose response against FIPV infected feline kidney cells (in words)” value in [1] (FIG. 1, viral induced CPE) is given as “protective against viral induced CytoPathic Effect (CPE) in a dose dependent manner”. Also, the figures for the EC90 in test [6] and in test [7] were 2000 nM and 5400 nM, respectively.
In turn, `CCC(CC)COC(=O)[C@H](C)N[P@](=O)(OC[C@H]1O[C@@](C#N)(c2ccc3c(N)ncnn23)[C@H](O)[C@@H]1O)Oc1ccccc1` [Remdesivir] came in with an EC50 in [1] (Alphacoronavirus 1, CRFK, 96 h) of 735 to 970 nM.
